The results in this text go back to patent US9624164B2, “Phenyl carbamate compounds for use in preventing or treating epilepsy” (Bio-Pharm Solutions Co., Ltd., priority 2011, dated 2017).

Where two headings read alike, the source gives them in different places.

Type in all cases: in vivo
Series [1] has as its system mice. In words: Measurement of neurotoxicity (rotarod, Dunham and Miya). As to conditions: protective index. On the procedure:
The measurement of neurotoxicity of the test compounds was conducted by the method of Dunham and Miya [Dunham, N. W. and Miya, T. S. 1957. A note on a simple apparatus for detecting neurological deficit in rats and mice. J. Am. Pharm. Assoc. (Baltimore) 46: 208-209]. In the method, motor abilities of the test animals can be determined by observing whether the test animals can walk without falling from a rotator, thereby determining the value of neurotoxicity of each compound. […] They were pre-trained on the rotarod (Rotarod; Columbus instrument, rota-max, USA) at 6 rpm for 5 min 24 hr prior to the test. The peak time was determined by administration test material's random dose for 0.5, 1, 2, 4 hour. […] The ratio of TD50 to ED50 (TD50/ED50) is called as a protective index, and useful as a parameter for comparison of pharmaceutical efficacy and neurotoxicity.
Background: Falling from the rotarod earlier than controls is read as motor impairment.

For series [2], the system named is male ICR mice. The experiment in a line: scPTZ test (subcutaneous pentylenetetrazol-induced clonic seizure), intraperitoneal administration, mice. As to conditions: ip. As for the experimental part: (§1) After Peak time (0.5, 1, 2 and 4 hr) from the administration, PTZ (Pentylenetetrazol) was administered subcutaneously in the concentration capable of inducing 97% intermittent convulsions (mice: 100˜110 mg/kg·bw, 100 ul/g, or rats: 90˜110 mg/kg·bw, 20 ul/g). If clonic seizure was not observed for at least 3 seconds in the PTZ administered animal, it can be considered that the test compound has anti-epilepsy activity.

Series [3] concerns male ICR mice. In words: MES test (maximal electroshock, corneal electrodes), oral administration, mice. In general terms: In the maximal electroshock model the usual endpoint is tonic extension of the hind limbs.
The test system of series [4] is male SD rats. In words: MES test (maximal electroshock, corneal electrodes), oral administration, rats.
Series [5] deals with male ICR mice. The experiment in a line: scPTZ test (subcutaneous pentylenetetrazol-induced clonic seizure), intraperitoneal administration, mice. The following applies: Mouse, ip, read-out: Duration of scPTZ test ED50.
Series [6] has as its system male SD rats. The experiment in a line: scPTZ test (subcutaneous pentylenetetrazol-induced clonic seizure), intraperitoneal administration, rats. As to conditions: ip; for ED50: Rat, read-out: Duration of scPTZ test ED50. On the procedure:
as §1

The mark [7] stands for this setting: Mus musculus, mice, at peak time, read-out: ScPTZ test(ip) ED50.

As to `CC(OC(N)=O)C(O)c1ccccc1Cl` (racemic) [Compound 3, 1-(2-chlorophenyl)-1-hydroxypropyl-2-carbamate], the “PI (TD50/ED50 in MES)” value in series [1] is given as 12.0. Moreover, the ED50 in series [2] (setting [7]) amounted to 15.3 mg/kg.

Consider `CCC(OC(N)=O)C(O)c1ccccc1Cl` (racemic) [Compound 8, 1-(2-chlorophenyl)-1-hydroxybutyl-2-carbamate], for which, in series [3] (Mus musculus, injection amount 100 mg/kg, 4 mice, read-out: MES test(po) Protection %), the responders at 100 mg/kg stood at 100%.

Regarding `CCCCC(OC(N)=O)C(O)c1ccccc1Cl` (racemic) [Compound 14, 1-(2-chlorophenyl)-1-hydroxyhexyl-2-carbamate], the responders at 200 mg/kg in series [3] (Mus musculus, injection amount 200 mg/kg, 4 mice, read-out: MES test(po) Protection %) came to 100%.

For the molecule `C[C@H](OC(N)=O)[C@@H](O)c1ccccc1Cl` [Compound 1, 1-(2-chlorophenyl)-(S)-1-hydroxypropyl-(S)-2-carbamate], the efficacy duration time entry in series [4] is on record as “at least 12 hours”; in series [3] (MES test, mice), “at least 12 hours”; in series [2] (scPTZ test, mice) it was “at least 12 hours”; in series [6] (scPTZ test, rats) it was “at least 12 hours”. Moreover, the “PI (TD50/ED50 in MES)” value in series [1] came to 16.8. In addition, the ED50 in series [5] (6 h) was 52.2 mg/kg; in series [5] (8 h), 80.7 mg/kg; in series [5] (12 h) it was 201 mg/kg; in series [2] (Mouse, 0.5 h, read-out: Duration of scPTZ test ED50), 17.3 mg/kg; in series [2] (Mouse, 1 h, read-out: Duration of scPTZ test ED50) it was 16.9 mg/kg; in series [2] (Mouse, 2 h, read-out: Duration of scPTZ test ED50), 15.8 mg/kg. Also, the ED50 in series [2] (Mouse, 4 h, read-out: Duration of scPTZ test ED50) stood at 27.4 mg/kg; in series [2] (setting [7]), 15.8 mg/kg; in series [6] (0.5 h) it was 18.9 mg/kg; in series [6] (1 h) it was 14.5 mg/kg; in series [6] (2 h), 21 mg/kg; in series [6] (4 h), 31 mg/kg. The ED50 in series [6] (8 h) was 41.3 mg/kg; in series [6] (12 h) it was 76.7 mg/kg.

`C[C@@H](OC(N)=O)[C@H](O)c1ccccc1Cl` [Compound 2, 1-(2-chlorophenyl)-(R)-1-hydroxypropyl-(R)-2-carbamate]: the “PI (TD50/ED50 in MES)” value in series [1] worked out at 7.3. The ED50 in series [2] (setting [7]) turned out to be 38.8 mg/kg.

In the case of `C[C@H](OC(N)=O)[C@H](O)c1ccccc1Cl` [Compound 5, 1-(2-chlorophenyl)-(R)-1-hydroxypropyl-(S)-2-carbamate], in series [1], the “PI (TD50/ED50 in MES)” value is 3.3. Further, the ED50 in series [2] (setting [7]) was 15 mg/kg.

Turning to `CC[C@H](OC(N)=O)[C@@H](O)c1ccccc1Cl` [Compound 6, 1-(2-chlorophenyl)-(S)-1-hydroxybutyl-(S)-2-carbamate], in series [2] (setting [7]), the ED50 is 17.9 mg/kg.

Consider `C[C@H](OC(N)=O)[C@@H](O)c1c(Cl)cccc1Cl` [Compound 37, 1-(2,6-dichlorophenyl)-(S)-1-hydroxypropyl-(S)-2-carbamate], for which the “PI (TD50/ED50 in MES)” value in series [1] came out at 5.1. Further, in series [2] (setting [7]), the ED50 was 25.7 mg/kg.

Turning to `CC[C@H](OC(N)=O)[C@@H](O)c1ccc(Cl)cc1Cl` [Compound 39, 1-(2,4-dichlorophenyl)-(S)-1-hydroxybutyl-(S)-2-carbamate], in series [2] (setting [7]), the ED50 is 24.3 mg/kg.

As to `C[C@H](OC(N)=O)[C@@H](O)c1ccccc1F` [Compound 63, 1-(2-fluorophenyl)-(S)-1-hydroxypropyl-(S)-2-carbamate], the responders at 50 mg/kg in series [3] (Mus musculus, injection amount 50 mg/kg, 4 mice, read-out: MES test(po) Protection %) was determined as 100%.
